According to US9982005B2, “Macrolides and methods of their preparation and use” (President and Fellows of Harvard College, priority 2013, dated 2018):
Values after ≈ are worked out from the molar mass of the structure shown. Read-outs that look alike come from different tables or passages of the source.

Experiments:
Type in all cases: cell-based
[1] = system: E. coli strains; test: MIC against E. coli strains (Table M7); conditions: Escherichia coli, ATCC25922, E. coli ATCC 25922
From the text: (§1) We have collected MIC data for a total of 50 novel macrolides that this platform has produced against over 21 unique strains of B. subtilis, E. coli, S. aureus, S. pneumoniae, and H. influenzae, including several multidrug-resistant strains, with a special focus on macrolide resistant mechanisms (vide supra). Azithromycin was included as a control macrolide. CLSI standard procedures for broth dilution MIC determination were used. […] These genotypes can be constitutive or inducible. The finding that C4-epi (unnatural) isomers of the “azaketolide” macrolide class have enhanced activities relative to C4 natural isomers is very exciting.

[2] = system: S. aureus strains; test: MIC against S. aureus strains (Table M7); conditions: Staphylococcus aureus
From the text: as §1

[3] = system: S. pneumoniae strains; test: MIC against S. pneumoniae strains (Tables M7, M8); conditions: Streptococcus pneumoniae
From the text: CLSI standard procedures for broth dilution MIC determination were used. […] These genotypes can be constitutive or inducible.

[4] = system: E. faecalis strains; test: MIC against E. faecalis strains (Table M8); conditions: Enterococcus faecalis, E. faecalis 29212
[5] = system: A. baumannii strains; test: MIC against A. baumannii strains (Table M8); conditions: Acinetobacter baumannii, BAA747, A. baumannii BAA747-1
[6] = system: K. pneumoniae strains; test: MIC against K. pneumoniae strains (Table M8); conditions: Klebsiella pneumoniae, K. pneumoniae 10031
[7] = system: H. influenzae strains; test: MIC against H. influenzae strains (Table M8); conditions: Haemophilus influenzae
From the text: as §1

[8] = ATCC29213, S. aureus ATCC 29213, read-out: MIC S. aureus (ATCC 29213)
[9] = S. aureus 183, read-out: MIC S. aureus (183)
[10] = S. aureus 506, read-out: MIC S. aureus (506)
[11] = S. aureus 1708, read-out: MIC S. aureus (1708)
[12] = USA300, S. aureus USA300, read-out: MIC S. aureus (USA300)
[13] = S. pneumoniae 160, read-out: MIC S. pneumonae (160)
[14] = S. pneumoniae 1509, read-out: MIC S. pneumoniae (1509)
[15] = S. pneumoniae 1533, read-out: MIC S. pneumoniae (1533)
[16] = S. pneumoniae 1537, read-out: MIC S. pneumoniae (1537)
[17] = S. pneumoniae 49619, read-out: MIC S. pneumoniae (49619)
[18] = H. influenzae 49247, read-out: MIC H. influenzae (49247)
[19] = H. influenzae 49766, read-out: MIC H. influenzae (49766)

| SMILES | MIC [1] [mg/L] | MIC [2, 8] [mg/L] | MIC [2, 9] [mg/L] | MIC [2, 10] [mg/L] | MIC [2, 11] [mg/L] | MIC [2, 12] [mg/L] | MIC [3, 13] [mg/L] | MIC [3, 14] [mg/L] | MIC [3, 15] [mg/L] | MIC [3, 16] [mg/L] | MIC [3, 17] [mg/L] | MIC [4] [mg/L] | MIC [5] [mg/L] | MIC [6] [mg/L] | MIC [7, 18] [mg/L] | MIC [7, 19] [mg/L] |
| --- | --- | --- | --- | --- | --- | --- | --- | --- | --- | --- | --- | --- | --- | --- | --- | --- |
| CC[C@H]1OC(=O)[C@H](C)C(=O)[C@H](C)[C@@H](O[C@@H]2OC(C)CC(N(C)C)C2O)[C@](C)(OC)C[C@@H](C)CN[C@H](CCO)[C@H]2N(CCCCn3cc(-c4cccc(N)c4)nn3)C(=O)O[C@]12C (stereo partly drawn) [FSM-11056] | > 32 | 8 (≈ 9.32 µM) | > 32 | > 32 | 8 (≈ 9.32 µM) | 32 (≈ 37.3 µM) | 1 (≈ 1.17 µM) | 0.5 (≈ 0.583 µM) | > 32 | > 32 | 0.125 (≈ 0.146 µM) | 2 (≈ 2.33 µM) | > 32 | 16 (≈ 18.6 µM) | 4 (≈ 4.66 µM) | 16 (≈ 18.6 µM) |
| C=CC[C@@H]1[C@H]2N(CCCCn3cc(-c4cccc(N)c4)nn3)C(=O)O[C@]2(C)[C@@H](CC)OC(=O)[C@H](C)C(=O)[C@H](C)[C@@H](O[C@@H]2OC(C)CC(N(C)C)C2O)[C@](C)(OC)C[C@@H](C)CN1C (stereo partly drawn) [FSM-11094] | > 32 | 8 (≈ 9.22 µM) | > 32 | > 32 | 16 (≈ 18.4 µM) | 8 (≈ 9.22 µM) | 1 (≈ 1.15 µM) | > 32 | > 32 | > 32 | 2 (≈ 2.3 µM) | 4 (≈ 4.61 µM) | > 32 | 16 (≈ 18.4 µM) | 8 (≈ 9.22 µM) | 16 (≈ 18.4 µM) |
| CC[C@H]1OC(=O)C(C)(F)C(=O)[C@H](C)[C@@H](O[C@@H]2OC(C)CC(N(C)C)C2O)[C@](C)(OC/C=C/c2cnc3ccccc3c2)C[C@@H](C)CN[C@H](C)[C@H]2NC(=O)O[C@@]21C (stereo partly drawn) [FSM-21088] | > 32 | 16 (≈ 20.4 µM) | > 32 | > 32 | 8 (≈ 10.2 µM) | 16 (≈ 20.4 µM) | 0.5 (≈ 0.637 µM) | > 32 | > 32 | > 32 | 2 (≈ 2.55 µM) | 8 (≈ 10.2 µM) | > 32 | > 32 | 8 (≈ 10.2 µM) | > 32 |
| CC[C@H]1OC(=O)[C@H](C)C(O)[C@H](C)[C@@H](O[C@@H]2OC(C)CC(N(C)C)C2O)[C@](C)(OC)C[C@@H](C)CN(C)[C@H](C)[C@H]2N(CCCCn3cc(-c4cccc(N)c4)nn3)C(=O)O[C@]12C (stereo partly drawn) [FSM-21335] | 32 (≈ 37.9 µM) | > 32 | > 32 | > 32 | > 32 | 32 (≈ 37.9 µM) | 0.25 (≈ 0.296 µM) | > 32 | > 32 | > 32 | 1 (≈ 1.18 µM) | 16 (≈ 19 µM) | > 32 | 4 (≈ 4.74 µM) | 4 (≈ 4.74 µM) | 32 (≈ 37.9 µM) |

Compounds with a lower MIC [1], results first:

| MIC [1] [mg/L] | MIC [2, 8] [mg/L] | MIC [2, 9] [mg/L] | MIC [2, 10] [mg/L] | MIC [2, 11] [mg/L] | MIC [2, 12] [mg/L] | MIC [3, 13] [mg/L] | MIC [3, 14] [mg/L] | MIC [3, 15] [mg/L] | MIC [3, 16] [mg/L] | MIC [3, 17] [mg/L] | MIC [4] [mg/L] | MIC [5] [mg/L] | MIC [6] [mg/L] | MIC [7, 18] [mg/L] | MIC [7, 19] [mg/L] | SMILES |
| --- | --- | --- | --- | --- | --- | --- | --- | --- | --- | --- | --- | --- | --- | --- | --- | --- |
| 8 (≈ 10.2 µM) | 1 (≈ 1.28 µM) | > 32 | > 32 | 1 (≈ 1.28 µM) | 2 (≈ 2.56 µM) | ≤ 0.0625 | 1 (≈ 1.28 µM) | > 32 | 32 (≈ 41 µM) | 0.125 (≈ 0.16 µM) | 0.5 (≈ 0.64 µM) | 32 (≈ 41 µM) | 2 (≈ 2.56 µM) | 2 (≈ 2.56 µM) | 8 (≈ 10.2 µM) | CC[C@H]1OC(=O)C(C)C(=O)[C@H](C)[C@@H](O[C@@H]2OC(C)CC(N(C)C)C2O)[C@](C)(OC/C=C/c2cnc3ccccc3c2)C[C@@H](C)CN(C)[C@H](C)[C@H]2NC(=O)O[C@@]21C (stereo partly drawn) [FSM-21118] |
| 16 (≈ 19 µM) | 2 (≈ 2.38 µM) | > 32 | > 32 | 4 (≈ 4.75 µM) | 2 (≈ 2.38 µM) | 0.125 (≈ 0.148 µM) | 1 (≈ 1.19 µM) | > 32 | > 32 | ≤ 0.0625 | 0.5 (≈ 0.594 µM) | 32 (≈ 38 µM) | 4 (≈ 4.75 µM) | 2 (≈ 2.38 µM) | 8 (≈ 9.5 µM) | CC[C@H]1OC(=O)[C@H](C)C(=O)[C@H](C)[C@@H](O[C@@H]2OC(C)CC(N(C)C)C2O)[C@](C)(OC)C[C@@H](C)CN(C)[C@H](C)[C@H]2N(CCCCn3cc(-c4cccc(N)c4)nn3)C(=O)O[C@]12C (stereo partly drawn) [FSM-21339] |
